Test results reported in US10478157B2, “Methods for drug delivery” (Presage Biosciences, Inc., priority 2011, dated 2019).

System: mouse xenograft of Human Lymphoma Ramos cell line
Assay: Vincristine delivered through a microdialysis probe into a solid tumor; Cleaved Caspase 3 / DAPI staining
Type: in vivo
Settings: intratumoral delivery by microdialysis probe; Cleaved Caspase 3 Fluorophore 555 for cell death, DAPI nuclear stain; FIG. 13
Description: FIGS. 13a and 13b show drug delivered through microdialysis probe induces spatially restricted drug specific tumor cell death embodying principles of the present invention.
Little or no evidence of tissue disruption due to insertion was observed. The membrane maintained its integrity through insertion and tissue processing, including microtome sectioning. The solid tumor is a mouse xenograft of Human Lymphoma Ramos cell line. The biomarkers are DAPI for nuclear stain and Cleaved Caspase 3 Fluorophore 555 for cell death in response to Vincristine as delivery agent.

Compound: CC[C@]1(O)C[C@H]2CN(CCc3c([nH]c4ccccc34)[C@@](C(=O)OC)(c3cc4c(cc3OC)N(C=O)[C@H]3[C@@](O)(C(=O)OC)[C@H](OC(C)=O)[C@]5(CC)C=CCN6CC[C@]43[C@@H]65)C2)C1 [Vincristine]
- triggered cellular response (Cleaved Caspase 3 biomarker for cell death) around the delivery axis: clear manifestation of triggered cellular response
